Target: cAMP and cAMP-inhibited cGMP 3',5'-cyclic phosphodiesterase 10A (Homo sapiens, UniProt Q9Y233)
Test: PDE10A assay
Description: Compounds were diluted in 20 mM HEPES/NaOH (pH 7.5), 10 mM MgCl2 and 0.05 mg/ml bovine serum albumin. A fixed amount of 2 ng/well human PDE10A enzyme was added and incubated at room temperature for 15 min under agitation. The reaction was started by the addition of the substrate cocktail [3H]cGMP (Perkin Elmer NET337001MC, S.A. 13.5 Ci/mmol) / cGMP at a final concentration of 50 nM and incubated for an additional 15 min. The reaction was stopped by the addition of 0.5 mg/well of Y-Si SPA beads. The plates were shaken for 1 h, followed by a brief centrifugation (170 g for 1 min). The radioactivity bound to the beads was estimated using a TopCount (Perkin-Elmer). For the determination of IC50 values, a four parameters logistics equation was used. pIC50 is defined as − log10(IC50).

IC50 | SMILES
2.61 nM | Cn1ncc(C(=O)N2CCC2)c1C(=O)Nc1cc2nc(-c3ccccc3)nn2cn1 [Roche-Dataset for PDE10A, Compound 236]
2420 nM | Cn1cc(-c2ccccc2)nc1CCc1cccc(-c2ccccn2)n1 [Roche-Dataset for PDE10A, Compound 237]
748 nM | CNC(=O)c1cc2[nH]c(-c3ccccc3)nc2cc1NC(=O)c1oc(CO)nc1C [Roche-Dataset for PDE10A, Compound 238]
14 nM | COCc1cnn(C)c1C(=O)Nc1ccn2nc(-c3ccccc3)nc2c1 [Roche-Dataset for PDE10A, Compound 239]
11 nM | Cn1cc(-c2ccccc2)nc1COc1nc(N2CCOCC2)c2ccccc2n1 [Roche-Dataset for PDE10A, Compound 240]
34 nM | Cc1cccc(-c2cn3c(n2)C[C@H](NC(=O)c2c(C(=O)N(C)C)cnn2C)CC3)c1 [Roche-Dataset for PDE10A, Compound 241]
15 nM | CCN(C)C(=O)c1cnn(C)c1C(=O)N[C@@H]1CCn2cc(-c3ccccc3)nc2C1 [Roche-Dataset for PDE10A, Compound 242]
11 nM | Nc1ccc(C2CC2)nc1C(=O)Nc1cc2nc(-c3ccccc3)[nH]c2cc1C(=O)NC1COC1 [Roche-Dataset for PDE10A, Compound 243]
987 nM | COc1c(C)cnc(/C=C/c2nc(-c3ccccc3)cn2C)c1C [Roche-Dataset for PDE10A, Compound 245]
44 nM | CN(C(=O)c1cnn(C)c1C(=O)N[C@@H]1CCn2cc(-c3ccccc3)nc2C1)C1COC1 [Roche-Dataset for PDE10A, Compound 248]
12 nM | COC[C@H]1CCCN1c1nc(CCc2nc3c(C)ncc(C)n3n2)n(C)n1 [Roche-Dataset for PDE10A, Compound 249]
182 nM | Cn1nnc(C(=O)N2CCC2)c1C(=O)Nc1ccn2nc(-c3ccccc3)nc2c1 [Roche-Dataset for PDE10A, Compound 250]
2.2 nM | CCOc1ccccc1-c1cn2c(n1)C[C@H](NC(=O)c1c(C(=O)N3CCC3)cnn1C)CC2 [Roche-Dataset for PDE10A, Compound 251]
1060 nM | CC(C)NC(=O)c1nc(C2CC2)cnc1OCc1nc(-c2ccccc2)cn1C [Roche-Dataset for PDE10A, Compound 252]
44 nM | Cn1ncc(C(=O)N2CCC2)c1C(=O)N[C@@H]1CCn2cc(-c3ccccc3OC(F)(F)F)nc2C1 [Roche-Dataset for PDE10A, Compound 253]
9.25 nM | Cc1nc2ccccc2nc1CCc1ncc(-c2ccccc2)[nH]1 [Roche-Dataset for PDE10A, Compound 254]
14 nM | CCn1nc(C)cc1C(=O)Nc1cc2nc(-c3ccccc3)[nH]c2cc1C(=O)NCCOC [Roche-Dataset for PDE10A, Compound 256]
6.04 nM | Cn1ncc(C(=O)N2CCC2)c1C(=O)N[C@@H]1CCn2cc(-c3ccccc3OC(F)F)nc2C1 [Roche-Dataset for PDE10A, Compound 257]
3120 nM | CCN(CC)C(=O)c1c(C)noc1C(=O)Nc1ccn2nc(-c3ccccc3)nc2c1 [Roche-Dataset for PDE10A, Compound 258]
1540 nM | Cc1[nH]c(-c2cccnc2)nc1CCN1C(=O)c2ccccc2C1=O [Roche-Dataset for PDE10A, Compound 260]
4.54 nM | Cn1ncc(C(=O)N2CCC2)c1C(=O)N[C@@H]1CCn2cc(-c3ccc(F)cc3)nc2C1 [Roche-Dataset for PDE10A, Compound 261]
183 nM | CCOC(=O)c1cnn(C)c1C(=O)Nc1ccn2nc(-c3cccnc3F)nc2c1 [Roche-Dataset for PDE10A, Compound 264]
0.6 nM | CCOc1cc(Cl)c(C)n2nc(CCc3nc(N4CCCC4)nn3C)nc12 [Roche-Dataset for PDE10A, Compound 266]

More lines, now with the values behind:

SMILES | IC50
CN(C)C(=O)c1cnn(C)c1C(=O)Nc1ccc2[nH]c(-c3ccccc3)nc2c1 [Roche-Dataset for PDE10A, Compound 195] | 0.36 nM
COc1c(C)cnc(CCc2nc(-c3ccccc3)cn2C)c1C [Roche-Dataset for PDE10A, Compound 197] | 680 nM
COc1nc(OCc2nc(-c3ccccc3)cn2C)nc2ccc(Cl)cc12 [Roche-Dataset for PDE10A, Compound 198] | 15 nM
CNc1cc(C(=O)Nc2ccn3nc(-c4ccccc4)nc3c2)cc(Cl)n1 [Roche-Dataset for PDE10A, Compound 199] | 86 nM
CC(C)c1nnc2c(C(=O)NCCc3nc(-c4ccccc4)cn3C)cccn12 [Roche-Dataset for PDE10A, Compound 201] | 25 nM
Cc1oc(-c2ccccc2)nc1CCNC(=O)c1nc(C2CC2)cnc1Nc1cncnc1 [Roche-Dataset for PDE10A, Compound 202] | 3.08 nM
CCN(CC)C(=O)c1cnn(C)c1C(=O)Nc1ccn2nc(N3CCOCC3)nc2c1 [Roche-Dataset for PDE10A, Compound 203] | 22 nM
Cn1ncc(C(=O)N2CCC2)c1C(=O)Nc1cc2nc(-c3ccccc3)nn2cc1F [Roche-Dataset for PDE10A, Compound 204] | 0.78 nM
Cc1c(Cl)cc(OC(F)F)c2nc(CCc3nc(N4CCCC4)n(C)n3)nn12 [Roche-Dataset for PDE10A, Compound 206] | 0.54 nM
CN(C(=O)c1cnn(C)c1C(=O)Nc1ccn2nc(N3CCOCC3)nc2c1)C1CC1 [Roche-Dataset for PDE10A, Compound 207] | 1.1 nM
CC(C)c1ncc(Nc2ccon2)c(C(=O)N[C@@H]2CCN(c3ccc(Cl)cn3)C2)n1 [Roche-Dataset for PDE10A, Compound 212] | 232 nM
Cc1cnn2c(C)c(CCc3nc(N4CCCC4)nn3C)nc2c1C [Roche-Dataset for PDE10A, Compound 216] | 20 nM
Cn1ncc2c1C(=O)N(c1ccn3nc(-c4cccc(F)c4)nc3c1)C2=O [Roche-Dataset for PDE10A, Compound 217] | 51 nM
Cn1ncc(C(=O)N2CCC2)c1C(=O)Nc1ccn2nc(-c3ccnc(Cl)c3)nc2c1 [Roche-Dataset for PDE10A, Compound 218] | 6.9 nM
Cc1cncc(-c2nc3cc(NC(=O)c4c(C(=O)N5CCC5)cnn4C)ccn3n2)c1 [Roche-Dataset for PDE10A, Compound 219] | 11 nM
CCOC(=O)c1cnn(C)c1C(=O)Nc1ccn2nc(-c3ccccc3OC)nc2c1 [Roche-Dataset for PDE10A, Compound 220] | 12 nM
CN(C)C(=O)c1cnn(C)c1C(=O)N[C@@H]1CCn2c(nc(-c3ccccc3)c2Cl)C1 [Roche-Dataset for PDE10A, Compound 221] | 30 nM
Cn1ncc(C(=O)N2CCOCC2)c1C(=O)Nc1cn(-c2ccc3ccccc3n2)cn1 [Roche-Dataset for PDE10A, Compound 222] | 1.76 nM
Cc1c(Cl)cc(OC(C)C)c2nc(CCc3nc(N4CCCC4)nn3C)nn12 [Roche-Dataset for PDE10A, Compound 223] | 0.69 nM
Cn1ncc(C(=O)N2CCC2)c1C(=O)N[C@@H]1CCn2c(nc(-c3ccccc3)c2Cl)C1 [Roche-Dataset for PDE10A, Compound 225] | 6.96 nM
COc1cccc(-c2cn3c(n2)C[C@H](NC(=O)c2c(C(=O)N(C)C)cnn2C)CC3)c1 [Roche-Dataset for PDE10A, Compound 230] | 263 nM
Cc1cc(-c2nc3cc(NC(=O)c4c(C(=O)N5CCC5)cnn4C)ccn3n2)ccn1 [Roche-Dataset for PDE10A, Compound 234] | 1.91 nM
